According to patent publication US5006555A, “Esters of 2-arylmethyl-1-naphthol derivatives as 5-lipoxygenase inhibitors” (E. I. Du Pont de Nemours and Company, priority 1990, dated 1991):

Experiments:
5-lipoxygenase = target: T1, 5-lipoxygenase (Rattus norvegicus, UniProt P12527); assay: 5-lipoxygenase inhibition in vitro, RBL-1 cell supernatant as enzyme source; type: biochemical; conditions: 10,000 xg supernatant of homogenized rat basophilic leukemia (RBL-1) cells, pH 7.0 phosphate buffer, 14C-arachidonic acid, 37°, two minutes
T1 construct: endogenous in cells; host or cells: RBL-1 (rat basophilic leukemia) cells, 10,000 xg supernatant of the homogenate
T1 sequence (P12527 1-673): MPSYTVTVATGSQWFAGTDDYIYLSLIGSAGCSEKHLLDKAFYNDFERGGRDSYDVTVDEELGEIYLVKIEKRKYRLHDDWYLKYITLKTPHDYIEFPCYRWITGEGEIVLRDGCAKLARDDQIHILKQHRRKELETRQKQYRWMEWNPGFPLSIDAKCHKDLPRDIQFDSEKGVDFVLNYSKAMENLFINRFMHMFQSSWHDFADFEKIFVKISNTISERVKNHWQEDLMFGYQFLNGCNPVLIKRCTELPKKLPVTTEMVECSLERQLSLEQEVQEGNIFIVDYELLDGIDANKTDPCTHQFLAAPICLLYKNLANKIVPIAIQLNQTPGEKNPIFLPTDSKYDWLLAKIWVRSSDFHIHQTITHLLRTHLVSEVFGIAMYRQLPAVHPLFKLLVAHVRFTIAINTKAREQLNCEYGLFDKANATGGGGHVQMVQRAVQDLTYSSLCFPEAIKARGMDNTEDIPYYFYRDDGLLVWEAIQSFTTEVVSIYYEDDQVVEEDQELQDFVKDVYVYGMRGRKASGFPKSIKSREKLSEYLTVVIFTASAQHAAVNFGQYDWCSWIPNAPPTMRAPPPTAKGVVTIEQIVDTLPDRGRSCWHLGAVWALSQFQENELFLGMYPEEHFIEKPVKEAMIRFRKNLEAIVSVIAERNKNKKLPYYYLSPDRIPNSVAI
Method: The test method is a modification of the procedure developed by Jakschik et al. (Prostaglandins (1978) 16. 733; Biochem. Biophys. Res. Commun. (1980) 95. 103; Biochem. Biophys, Res. Commun. (1981) 102 624).
The 10,000 xg supernatant from homogenized RBL-1 cells was incubated with test compound in a pH 7.0 phosphate buffer for about five minutes. ^14 C-arachidonic acid was added to initiate the reaction, which was allowed to continue at 37° for two minutes. The reaction was stopped by freezing in a dry ice/ethanol slurry and the 5-lipoxygenase products were separated from the substrate on silica gel columns. The amount of individual lipoxygenase products produced was determined and the percent inhibition calculated.

[1] = system: arachidonic acid-induced ear edema; assay: arachidonic acid-induced ear edema in mice; type: in vivo; conditions: Mus musculus, 1 h; 100 μg/ear topical in acetone, CF1 mice, 1 mg arachidonic acid, one hour after challenge; >30% significant, 50% and above good to excellent
Method: This assay indicates a specific use in the treatment of skin diseases such as psoriasis. This assay also implies a reduction in leukotrienes caused by the compounds of the invention and indicates the use of these compounds in other diseases where the production of leukotrienes is involved in the pathological process. The assay is a modification of the procedure described by Young et al. (J. Invest. Dermatol. (1983) 80. 48).
Arachidonic acid (1 mg) was applied as an acetone solution to the inner surface of the pinna of CF1 mice. Test compound dissolved in acetone was applied to the ear just prior to the arachidonic acid challenge. One hour after challenge, 6 mm disks were removed from the ear with a biopsy punch and the weight determined. The results were determined as a percent inhibition of the swelling which occurred in the absence of the test compound.
Significant inhibitory activity is considered to be greater than 30% inhibition. 50% and above is considered to be good to excellent activity.

SMILES | IC50 (5-lipoxygenase) | inhibition in vivo at 100 µg/ear [1]
CC(=O)Oc1c(Cc2ccccc2)ccc2ccccc12 [Example 1, 1-acetoxy-2-phenylmethylnaphthalene] | 140 nM | 66%
CCOC(=O)Oc1c(Cc2ccccc2)ccc2ccccc12 [Example 2, 1-ethoxycarbonyloxy-2-phenylmethyl naphthalene] | 1200 nM | 50%
O=C(O)CCC(=O)Oc1c(Cc2ccccc2)ccc2ccccc12 [Example 3, 1-(3-carboxvpropionvloxv)-2-phenylmethvlnaphthalene] | 530 nM | 
CN(C)CCCC(=O)Oc1c(Cc2ccccc2)ccc2ccccc12 [Example 4, 1-(4-demethylamine-butyryloxy)-2-phenylmethvlnaohthalene hvdrochloride] | 520 nM | 44%
CC(=O)Oc1c(Cc2ccccc2F)ccc2ccccc12 [Example 7] |  | 72%
CC(=O)Oc1c(Cc2cccc(F)c2)ccc2ccccc12 [Example 8] | 62 nM | 
COc1ccc(Cc2ccc3ccccc3c2OC(C)=O)cc1 [Example 10] | 90 nM | 53%
COc1ccc(Cc2ccc3ccccc3c2OC(C)=O)cc1OC [Example 11] | 580 nM | 
CC(=O)Oc1ccc(Cc2ccc3ccccc3c2OC(C)=O)cc1OC(C)=O [Example 12, 1-acetoxy-2-(3,4-diaacetoxyphenylmethyl)naphthalene] | 1600 nM | 35%
CC(=O)Oc1c(Cc2ccc3c(c2)OCO3)ccc2ccccc12 [Example 14] | 190 nM | 
CC(=O)Oc1c(Cc2ccc(N(C)C)cc2)ccc2ccccc12 [Example 15, 1-acetoxy-2-(4-dimethylaminophenylmethyl)naphthalene] | 810 nM | 49%
CC(=O)Oc1c(Cc2cccs2)ccc2ccccc12 [Example 17] | 70 nM | 52%
